Test results from patent US6762160B2, “Composition for removing biofilms comprising a detergent and a salt forming acid” (Universite de Montreal, priority 1998, dated 2004).
“Also recorded” adds a separate entry of the source.

Tests used:
[1] = system: dental unit waterlines bacteria; test: Antibacterial activity: growth in R2Am medium after disinfection of tubings;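 note: disinfected tubing pieces kept 7 days at room temperature in R2Am medium, then scored for presence or absence of bacterial growth by absorbance at 590 nm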
Description: To test the antibacterial activity, we used the same setup as above. After the 1 or 18 hour incubation, tubings were rinsed with sterile water. Pieces of tubings were dropped in sterile test tubes containing 4 ml of R2Am medium. Test tubes were capped and incubated for 7 days at room temperature. […] Data were recorded as presence or absence of growth with a spectrophotometer at λ=590 nm.

[2] = system: mature biofilms on lumen of dental unit waterlines tubings; test: Biofilm removal from dental unit waterline tubing pieces, binocular microscope 40x, arbitrary scale; assay type: cell-based, dental unit waterlines bacteria; details: for detergent capable of dislodging biofilms: different types of detergents tried; for RESULTS AFTER DISINFECTION 1 hour (biofilm scale): key: −: no biofilm; ++++: + ++ + : no significant removal of film; for RESULTS AFTER DISINFECTION 18 hours (biofilm scale): key: −: no biofilm; ++++: + ++ + : no significant removal of film
Description: Two-cm long pieces of dental unit waterlines tubings were used. These tubings were taken from functional dental units installed at the faculty of dentistry of the University of Montreal. […] The pieces were sectioned longitudinally with a sterile scalpel blade to expose the biofilm. Another series of tubings was left untouched. Sections of tubings were placed in sterile 5 ml disposable test tubes containing solutions to be tested.
After 1 or 18 hours without agitation at room temperature, tubings were rinsed three times with sterile water.

Mycobacterium sp. = assay type: cell-based
[3] = selected acid 1% with H2O2 5%, EDTA 1%, SDS 1%, pH 5,0, tubing incubated 7 days in R2Am, 590 nm
[4] = selected acid 1% with H2O2 5%, EDTA 1%, SDS 1%, pH 5,0, 18 hours contact, room temperature, no agitation
[5] = acid 1% in H2O2 5%/EDTA 1%/SDS 1% solution, pH 5.0, 1 hour or 18 hours
[6] = selected acid 1% with H2O2 5%, EDTA 1%, SDS 1%, pH 5,0, 1 hour contact, room temperature, no agitation

Povidone-iodine
bactericide tried in cleaning solution [1]: success
efficiency of bactericide combined to detergent ([2]; combined to the detergent Tween 20): significant efficiency
detergent capable of dislodging biofilms [2]: capable of dislodging biofilms

CC(N)C(=O)O (racemic) [DL-Alanine]
RESULTS AFTER DISINFECTION Growth [1, 3]: −
RESULTS AFTER DISINFECTION 18 hours (biofilm scale) [2, 4]: −

O=C(O)CCCCC(=O)O [Adipic Acid]
RESULTS AFTER DISINFECTION Growth [1, 3]: −
acceptably performing acids: decontamination within the specified times [2, 5]: sufficient decontamination

O=C(O)c1ccccc1 [Benzoic Acid]
RESULTS AFTER DISINFECTION Growth ([1]; pH 5): −
acceptably performing acids: decontamination within the specified times ([2]; pH 5): sufficient decontamination

N[C@H](Cc1ccccc1)C(=O)O [D-Phenylalanine]
RESULTS AFTER DISINFECTION Growth [1, 3]: −

O=C(O)C(O)C(O)C(=O)O [D-Tartric acid]
RESULTS AFTER DISINFECTION Growth [1, 3]: −

Tetrasodium EDTA
chelator tried against biofilms [2]: a certain degree of success

O=C(O)C(=O)O [Oxalic Acid]
RESULTS AFTER DISINFECTION Growth [1, 3]: −
acceptably performing acids: decontamination within the specified times [2, 5]: sufficient decontamination

CCCCCCCCCCCCOS(=O)(=O)[O-].[Na+] [SDS, Sodium dodecyl sulfate]
biofilm removal efficiency after 18 hours ([2]; SDS 0.15% with 6% hydrogen peroxide, HEEDTA 0.3%, acetic acid 0.1%, zinc sulfate heptahydrate 0.1%, pH adjusted to 5, 18 hours): perfect efficiency
biofilm removal activity after one hour ([2]; SDS 0.15% with 6% hydrogen peroxide, HEEDTA 0.3%, acetic acid 0.1%, zinc sulfate heptahydrate 0.1%, pH adjusted to 5, one hour, sulfate): very good activity; also recorded: did work well
cleaning efficacy within one hour ([2]; SDS 1%, within one hour): perfect cleaning efficacy
detergent capable of dislodging biofilms [2]: capable of dislodging biofilms

N[C@@H](C(=O)O)c1ccccc1 [R-2-Phenylglycine]
RESULTS AFTER DISINFECTION Growth [1, 3]: −

O=C(O)/C=C/C(=O)O [Fumaric Acid]
RESULTS AFTER DISINFECTION Growth [1, 3]: −
RESULTS AFTER DISINFECTION 1 hour (biofilm scale) [2, 6]: −
RESULTS AFTER DISINFECTION 18 hours (biofilm scale) [2, 4]: −

O=C(O)c1ccccc1O [Salicylic Acid]
RESULTS AFTER DISINFECTION Growth [1, 3]: −
acceptably performing acids: decontamination within the specified times [2, 5]: sufficient decontamination

O=C[C@H](O)[C@@H](O)[C@H](O)[C@H](O)C(=O)O [Glucuronic Acid]
RESULTS AFTER DISINFECTION Growth [1, 3]: −
acceptably performing acids: decontamination within the specified times [2, 5]: sufficient decontamination

Sodium cocoyl sarcosinate [SCS]
detergent capable of dislodging biofilms [2]: capable of dislodging biofilms

CC(O)C(=O)O (centres unmarked) [Lactic Acid]
RESULTS AFTER DISINFECTION Growth [1, 3]: −

O=C(O)C(Cl)Cl [Dichloroacetic Acid]
RESULTS AFTER DISINFECTION Growth [1, 3]: −
acceptably performing acids: decontamination within the specified times ([2]; pH 5): sufficient decontamination

O=C(O)CCC(=O)O [Succinic Acid]
RESULTS AFTER DISINFECTION Growth [1, 3]: −
acceptably performing acids: decontamination within the specified times [2, 5]: sufficient decontamination

N[C@@H](CO)C(=O)O [L-Serine]
RESULTS AFTER DISINFECTION Growth [1, 3]: −
acceptably performing acids: decontamination within the specified times [2, 5]: sufficient decontamination

CC(=O)C(=O)O [Pyruvic Acid]
RESULTS AFTER DISINFECTION Growth [1, 3]: −
RESULTS AFTER DISINFECTION 18 hours (biofilm scale) [2, 4]: −

O=C(O)C(=O)c1ccccc1 [Benzoylformic Acid]
RESULTS AFTER DISINFECTION Growth [1, 3]: −
acceptably performing acids: decontamination within the specified times [2, 5]: sufficient decontamination

O=C(O)[C@@H](O)[C@H](O)[C@H](O)[C@@H](O)C(=O)O [Mucic Acid]
RESULTS AFTER DISINFECTION Growth [1, 3]: −
RESULTS AFTER DISINFECTION 1 hour (biofilm scale) [2, 6]: −
RESULTS AFTER DISINFECTION 18 hours (biofilm scale) [2, 4]: −

O=C(O)CN(CC(=O)O)CC(=O)O [Nitrilotriacetic Acid]
RESULTS AFTER DISINFECTION Growth [1, 3]: −
acceptably performing acids: decontamination within the specified times [2, 5]: sufficient decontamination

O=C(O)CNC(CO)(CO)CO [Tricine]
RESULTS AFTER DISINFECTION Growth [1, 3]: −
acceptably performing acids: decontamination within the specified times [2, 5]: sufficient decontamination

CC(=O)O [Acetic Acid]
RESULTS AFTER DISINFECTION Growth [1, 3]: −
salt-forming acid tried against biofilm ([2]; acetic acid 0.1% to 1%): very efficient
RESULTS AFTER DISINFECTION 1 hour (biofilm scale) [2, 6]: −
RESULTS AFTER DISINFECTION 18 hours (biofilm scale) [2, 4]: −

O=C1O[C@H]([C@@H](O)CO)C(O)=C1O [L-Ascorbic Acid]
RESULTS AFTER DISINFECTION Growth [1, 3]: −
RESULTS AFTER DISINFECTION 1 hour (biofilm scale) [2, 6]: ++++

O=C(O)C(O)c1ccccc1 (centres unmarked) [Mandelic Acid]
RESULTS AFTER DISINFECTION Growth [1, 3]: −
salt-forming acid tried against biofilm ([2]; mandelic acid 1% to 10%): success
RESULTS AFTER DISINFECTION 1 hour (biofilm scale) [2, 6]: −
RESULTS AFTER DISINFECTION 18 hours (biofilm scale) [2, 4]: −

NC(=O)C(=O)O [Oxamic Acid]
RESULTS AFTER DISINFECTION Growth [1, 3]: −
acceptably performing acids: decontamination within the specified times [2, 5]: sufficient decontamination

O=C(O)/C=C\C(=O)O [Maleic Acid]
RESULTS AFTER DISINFECTION Growth [1, 3]: −
acceptably performing acids: decontamination within the specified times [2, 5]: sufficient decontamination

O=CO [Formic Acid]
RESULTS AFTER DISINFECTION Growth ([1]; pH 5): −
acceptably performing acids: decontamination within the specified times ([2]; pH 5): sufficient decontamination

O=C(O)CC(O)(CC(=O)O)C(=O)O [Citric Acid]
RESULTS AFTER DISINFECTION Growth [1, 3]: −
acceptably performing acids: decontamination within the specified times [2, 5]: sufficient decontamination

OCl [sodium hypochlorite]
killing activity of bactericide, even against Mycobacterium sp. (Mycobacterium sp.): broad host killing activity; also recorded: efficient

N[C@@H](CCC(=O)O)C(=O)O [Glutamic Acid]
RESULTS AFTER DISINFECTION Growth [1, 3]: −
acceptably performing acids: decontamination within the specified times [2, 5]: sufficient decontamination

O=C(O)CC(O)C(=O)O (centres unmarked) [Malic Acid]
RESULTS AFTER DISINFECTION Growth [1, 3]: −
acceptably performing acids: decontamination within the specified times [2, 5]: sufficient decontamination

N[C@@H](CC(=O)O)C(=O)O [L-Aspartic Acid]
RESULTS AFTER DISINFECTION Growth [1, 3]: −
RESULTS AFTER DISINFECTION 18 hours (biofilm scale) [2, 4]: −

NCC(=O)O [Glycine]
RESULTS AFTER DISINFECTION Growth [1, 3]: −
acceptably performing acids: decontamination within the specified times [2, 5]: sufficient decontamination

O=C(O)CNCC(=O)O [Iminodiacetic Acid]
RESULTS AFTER DISINFECTION Growth [1, 3]: −
RESULTS AFTER DISINFECTION 1 hour (biofilm scale) [2, 6]: −
RESULTS AFTER DISINFECTION 18 hours (biofilm scale) [2, 4]: −

NC(Cc1ccc(O)cc1)C(=O)O (racemic) [DL-Tyrosine]
RESULTS AFTER DISINFECTION Growth [1, 3]: −
acceptably performing acids: decontamination within the specified times [2, 5]: sufficient decontamination

O=C(O)c1ccccc1C(=O)O [Phthalic Acid]
RESULTS AFTER DISINFECTION Growth [1, 3]: −
acceptably performing acids: decontamination within the specified times [2, 5]: sufficient decontamination

O=C(O)CC(=O)O [Malonic Acid]
RESULTS AFTER DISINFECTION Growth [1, 3]: −

R-Chloromandelic Acid
RESULTS AFTER DISINFECTION Growth [1, 3]: −
acceptably performing acids: decontamination within the specified times [2, 5]: sufficient decontamination

O=P(O)(O)O [Phosphoric Acid (H3PO4), Phosphoric Acid]
RESULTS AFTER DISINFECTION Growth [1, 3]: −
RESULTS AFTER DISINFECTION 18 hours (biofilm scale) [2, 4]: −

Ketopimelic Acid
RESULTS AFTER DISINFECTION Growth [1, 3]: −
acceptably performing acids: decontamination within the specified times [2, 5]: sufficient decontamination

N[C@@H](Cc1c[nH]c2ccccc12)C(=O)O [L-Tryptophan]
RESULTS AFTER DISINFECTION Growth ([1]; pH 5): −
acceptably performing acids: decontamination within the specified times ([2]; pH 5): sufficient decontamination

O=C(O)CO [Glycolic Acid]
RESULTS AFTER DISINFECTION Growth [1, 3]: −
RESULTS AFTER DISINFECTION 1 hour (biofilm scale) [2, 6]: −
RESULTS AFTER DISINFECTION 18 hours (biofilm scale) [2, 4]: −

OO [hydrogen peroxide, Hydrogen peroxide]
growth after treatment ([1]; hydrogen peroxide 5% in Table 1 solutions): total absence of growth
killing activity of bactericide, even against Mycobacterium sp. (Mycobacterium sp.): broad host killing activity; also recorded: efficient

O=C(O)CCl [Chloroacetic Acid]
RESULTS AFTER DISINFECTION Growth ([1]; pH 5): −
RESULTS AFTER DISINFECTION 18 hours (biofilm scale) ([2]; pH 5): −

Sodium n-decyl diphenylether disulfonate [SDDD]
detergent capable of dislodging biofilms [2]: capable of dislodging biofilms

O=C(O)CCC(=O)C(=O)O [2-Ketoglutaric Acid]
RESULTS AFTER DISINFECTION Growth ([1]; pH 5): −
RESULTS AFTER DISINFECTION 1 hour (biofilm scale) ([2]; pH 5): −
RESULTS AFTER DISINFECTION 18 hours (biofilm scale) ([2]; pH 5): −

OB(O)O [Boric Acid (B(OH)3), Boric Acid]
RESULTS AFTER DISINFECTION Growth [1, 3]: −
acceptably performing acids: decontamination within the specified times [2, 5]: sufficient decontamination

O=C(O)Cc1ccccc1 [Phenylacetic Acid]
RESULTS AFTER DISINFECTION Growth [1, 3]: −
acceptably performing acids: decontamination within the specified times [2, 5]: sufficient decontamination

O=C(O)CN(CCO)CCO [Bicine]
RESULTS AFTER DISINFECTION Growth [1, 3]: −
acceptably performing acids: decontamination within the specified times [2, 5]: sufficient decontamination

Oc1ccccc1 [phenol]
bactericide tried in cleaning solution [1]: success
killing activity of bactericide, even against Mycobacterium sp. (Mycobacterium sp.): efficient
